Read-outs that look alike come from different tables or passages of the source. Where no end group is shown, it is not given here.

For series [1] the following is noted: human, in vivo; cited from earlier work.
The subject of series [2] is target mRNA. As to conditions: cited from earlier work.
For series [3], the system named is HBV. As to conditions: 715 treatment-naive HBeAg-positive patients, compared with lamivudine; cited from earlier work.
Series [4] deals with HBV. As to conditions: compared with lamivudine; cited from earlier work.
The nature of series [5]: siRNA uptake with HK carriers. As to conditions: compared with other HK polymers or non-viral carriers tested. The class given is cell-based.
Series [6] has as its system target mRNA. Put plainly: HK polymers as carriers of siRNA (transfection, reduction of target mRNA). Format: cell-based. As to conditions: highly branched polymers with eight terminal branches.

Turning to `Cc1cn([C@H]2O[C@@H](CO)[C@H](O)[C@H]2F)c(=O)[nH]c1=O` [Clevudine, 2′-fluoro-5-methyl-b-L-arabinofuranosyl-uracil], the “adverse events that halted development” value in series [1] is “myopathy and mitochondrial toxicity”.
In the case of “H^2K4b: four-branched histidine-lysine peptide polymer, branch KHKHHKHHKHHKHHKHHKHK- (also: one branch of four-branched polymer on lysine core)”, the “carrier of siRNA” value with target mRNA [2] is recorded as “poor carrier”.
In the case of “H^3K4b: four-branched histidine-lysine peptide polymer, branch KHHHKHHHKHHHKHHHK- (also: one branch of four-branched polymer on lysine core)”, the “carrier of siRNA” value in the series on target mRNA [2] is recorded as “effective carriers”.
On to `C=C1[C@H](CO)[C@@H](O)C[C@@H]1n1cnc2c(=O)[nH]c(N)nc21` [Entecavir], for which the “rate of histological, virological and biochemical improvement” value in the series with HBV [3] was “significantly higher rate”. Besides, in the series with HBV [4], the “reducing viral DNA replication in vitro” value is reported as “more effective than lamivudine”.

B1: H^3K8b: highly branched histidine-lysine polymer with eight terminal branches and a histidine-rich domain (peptide)
chain 1: HHHKHHHKHHHKHHH
chain 2: HHHKHHHKHHHKHHHKHHHHNHHHH
chain 3: HHHKHHHKHHHKHHHKHHHHNHHHHKKK-NH2
modifications: also: chain 2 K16 side chain amide-linked to another sequence, chain 3 K16, K26, K27, K28 side chains amide-linked to other sequences (branched core)
In the case of B1, the siRNA uptake result in series [5] was “more effectively than other HK polymers or non-viral carriers tested”. Also, in the series on target mRNA [6], the “carrier of siRNA” value is “highly effective”.

Values taken from patent publication US20240158794A1, “NUCLEOSIDE CONTAINING siRNAS FOR TREATING VIRAL DISEASES” (priority 2020, published 2024).
